According to ChEMBL document CHEMBL3352489, “6-Hydroxyquinolinium salts differing in the length of alkyl side-chain: synthesis and antimicrobial activity” (Bioorg Med Chem Lett, 2014):

Legend:
[1] = Retention time of the compound by gradient elution based HPLC method; type: physicochemical
[2] = Retention time of the compound by isocratic elution based HPLC method; type: physicochemical
Escherichia coli [3] = experiment: Bactericidal activity against Escherichia coli CCM 4517 after 48 hrs by microdilution broth method; type: functional; details: CCM 4517, 48 h, read-out: MBC>99.9
[4] = test system: Staphylococcus epidermidis; experiment: microbe, parasite or virus in culture; type: functional; details: H 6966/08, 48 h
Description: Antibacterial activity against Staphylococcus epidermidis H 6966/08 after 48 hrs by microdilution broth method

Candida tropicalis [5] = experiment: microbe, parasite or virus in culture; type: functional; details: Candida tropicalis, 156, 48 h
Description: Antifungal activity against Candida tropicalis 156 after 48 hrs by modified standard CSLI M27-A2 method

Klebsiella pneumoniae [6] = experiment: Bactericidal activity against Klebsiella pneumoniae D 11750/08 after 24 hrs by microdilution broth method; type: functional; details: D 11750/08, 24 h, read-out: MBC>99.9
[7] = Cytotoxicity against CHOK1 cells after 24 hrs by MTT assay; type: ADME, cell-based; details: Cricetulus griseus, CHO-K1, 24 h
Klebsiella pneumoniae [8] = experiment: Bactericidal activity against Klebsiella pneumoniae J 14368/08 after 48 hrs by microdilution broth method; type: functional; details: J 14368/08, 48 h, read-out: MBC>99.9
Pichia kudriavzevii [9] = experiment: Antifungal activity against Candida krusei E28 after 24 hrs by modified standard CSLI M27-A2 method; type: functional; details: E28, 24 h
Lichtheimia corymbifera [10] = experiment: Fungicidal activity against Absidia corymbifera 272 after 48 hrs by modified standard CSLI M27-A2 method; type: functional; details: Lichtheimia corymbifera, 272, 48 h
Enterococcus sp. [11] = experiment: microbe, parasite or virus in culture; type: functional; details: J 14365/08, 48 h
Description: Antibacterial activity against Enterococcus sp. J 14365/08 after 48 hrs by microdilution broth method

Escherichia coli [12] = experiment: microbe, parasite or virus in culture; type: functional; details: CCM 4517, 48 h
Description: Antibacterial activity against Escherichia coli CCM 4517 after 48 hrs by microdilution broth method

Lichtheimia corymbifera [13] = experiment: microbe, parasite or virus in culture; type: functional; details: Lichtheimia corymbifera, 272, 48 h
Description: Antifungal activity against Absidia corymbifera 272 after 48 hrs by modified standard CSLI M27-A2 method

Pichia kudriavzevii [14] = experiment: Antifungal activity against Candida krusei E28 after 48 hrs by modified standard CSLI M27-A2 method; type: functional; details: E28, 48 h
Staphylococcus aureus [15] = experiment: microbe, parasite or virus in culture; type: functional; details: CCM 4516/08, 48 h
Description: Antibacterial activity against Staphylococcus aureus CCM 4516/08 after 48 hrs by microdilution broth method

Staphylococcus aureus [16] = experiment: microbe, parasite or virus in culture; type: functional; details: H 5996/08, 24 h
Description: Antibacterial activity against Staphylococcus aureus H 5996/08 after 24 hrs by microdilution broth method

Candida albicans [17] = experiment: Fungicidal activity against Candida albicans ATCC 44859 after 48 hrs by modified standard CSLI M27-A2 method; type: functional; details: ATCC 44859, 48 h
Klebsiella pneumoniae [18] = experiment: microbe, parasite or virus in culture; type: functional; details: J 14368/08, 24 h
Description: Antibacterial activity against Klebsiella pneumoniae J 14368/08 after 24 hrs by microdilution broth method

Trichosporon asahii [19] = experiment: microbe, parasite or virus in culture; type: functional; details: Trichosporon asahii, 1188, 48 h
Description: Antifungal activity against Trichosporon asahii 1188 after 48 hrs by modified standard CSLI M27-A2 method

Candida albicans [20] = experiment: microbe, parasite or virus in culture; type: functional; details: ATCC 44859, 24 h
Description: Antifungal activity against Candida albicans ATCC 44859 after 24 hrs by modified standard CSLI M27-A2 method

Candida tropicalis [21] = experiment: Fungicidal activity against Candida tropicalis 156 after 48 hrs by modified standard CSLI M27-A2 method; type: functional; details: Candida tropicalis, 156, 48 h
[22] = test system: Staphylococcus epidermidis; experiment: Bactericidal activity against Staphylococcus epidermidis H 6966/08 after 48 hrs by microdilution broth method; type: functional; details: H 6966/08, 48 h, read-out: MBC>99.9
Staphylococcus aureus [23] = experiment: Bactericidal activity against Staphylococcus aureus H 5996/08 after 48 hrs by microdilution broth method; type: functional; details: H 5996/08, 48 h, read-out: MBC>99.9
Lichtheimia corymbifera [24] = experiment: microbe, parasite or virus in culture; type: functional; details: Lichtheimia corymbifera, 272, 24 h
Description: Antifungal activity against Absidia corymbifera 272 after 24 hrs by modified standard CSLI M27-A2 method

Trichosporon asahii [25] = experiment: Fungicidal activity against Trichosporon asahii 1188 after 48 hrs by modified standard CSLI M27-A2 method; type: functional; details: Trichosporon asahii, 1188, 48 h
Klebsiella pneumoniae [26] = experiment: microbe, parasite or virus in culture; type: functional; details: J 14368/08, 48 h
Description: Antibacterial activity against Klebsiella pneumoniae J 14368/08 after 48 hrs by microdilution broth method

Escherichia coli [27] = experiment: microbe, parasite or virus in culture; type: functional; details: CCM 4517, 24 h
Description: Antibacterial activity against Escherichia coli CCM 4517 after 24 hrs by microdilution broth method

Enterococcus sp. [28] = experiment: Bactericidal activity against Enterococcus sp. J 14365/08 after 48 hrs by microdilution broth method; type: functional; details: J 14365/08, 48 h, read-out: MBC>99.9
Aspergillus fumigatus [29] = experiment: Fungicidal activity against Aspergillus fumigatus 231 after 48 hrs by modified standard CSLI M27-A2 method; type: functional; details: Aspergillus fumigatus, 231, 48 h
Staphylococcus aureus [30] = experiment: microbe, parasite or virus in culture; type: functional; details: CCM 4516/08, 24 h
Description: Antibacterial activity against Staphylococcus aureus CCM 4516/08 after 24 hrs by microdilution broth method

Aspergillus fumigatus [31] = experiment: microbe, parasite or virus in culture; type: functional; details: Aspergillus fumigatus, 231, 24 h
Description: Antifungal activity against Aspergillus fumigatus 231 after 24 hrs by modified standard CSLI M27-A2 method

Klebsiella pneumoniae [32] = experiment: microbe, parasite or virus in culture; type: functional; details: D 11750/08, 24 h
Description: Antibacterial activity against Klebsiella pneumoniae D 11750/08 after 24 hrs by microdilution broth method

Enterococcus sp. [33] = experiment: microbe, parasite or virus in culture; type: functional; details: J 14365/08, 24 h
Description: Antibacterial activity against Enterococcus sp. J 14365/08 after 24 hrs by microdilution broth method

Nakaseomyces glabratus [34] = experiment: Antifungal activity against Candida glabrata 20/I after 24 hrs by modified standard CSLI M27-A2 method; type: functional
Trichosporon asahii [35] = experiment: microbe, parasite or virus in culture; type: functional; details: Trichosporon asahii, 1188, 24 h
Description: Antifungal activity against Trichosporon asahii 1188 after 24 hrs by modified standard CSLI M27-A2 method

Klebsiella pneumoniae [36] = experiment: microbe, parasite or virus in culture; type: functional; details: D 11750/08, 48 h
Description: Antibacterial activity against Klebsiella pneumoniae D 11750/08 after 48 hrs by microdilution broth method

Staphylococcus aureus [37] = experiment: microbe, parasite or virus in culture; type: functional; details: H 5996/08, 48 h
Description: Antibacterial activity against Staphylococcus aureus H 5996/08 after 48 hrs by microdilution broth method

Pseudomonas aeruginosa [38] = experiment: microbe, parasite or virus in culture; type: functional; details: CCM 1961, 120 h
Description: Antibacterial activity against Pseudomonas aeruginosa CCM 1961 after 120 hrs by microdilution broth method

Nakaseomyces glabratus [39] = experiment: Antifungal activity against Candida glabrata 20/I after 48 hrs by modified standard CSLI M27-A2 method; type: functional
Pichia kudriavzevii [40] = experiment: Fungicidal activity against Candida krusei E28 after 48 hrs by modified standard CSLI M27-A2 method; type: functional; details: E28, 48 h
Candida albicans [41] = experiment: microbe, parasite or virus in culture; type: functional; details: ATCC 44859, 48 h
Description: Antifungal activity against Candida albicans ATCC 44859 after 48 hrs by modified standard CSLI M27-A2 method

Nakaseomyces glabratus [42] = experiment: Fungicidal activity against Candida glabrata 20/I after 48 hrs by modified standard CSLI M27-A2 method; type: functional
Pseudomonas aeruginosa [43] = experiment: microbe, parasite or virus in culture; type: functional; details: CCM 1961, 72 h
Description: Antibacterial activity against Pseudomonas aeruginosa CCM 1961 after 72 hrs by microdilution broth method

Pseudomonas aeruginosa [44] = experiment: Bactericidal activity against Pseudomonas aeruginosa CCM 1961 after 120 hrs by microdilution broth method; type: functional; details: CCM 1961, 120 h, read-out: MBC>99.9
Candida tropicalis [45] = experiment: microbe, parasite or virus in culture; type: functional; details: Candida tropicalis, 156, 24 h
Description: Antifungal activity against Candida tropicalis 156 after 24 hrs by modified standard CSLI M27-A2 method

[46] = test system: Trichophyton mentagrophytes; experiment: microbe, parasite or virus in culture; type: functional; details: Trichophyton mentagrophytes, 445, 72 h
Description: Antifungal activity against Trichophyton mentagrophytes 445 after 72 hrs by modified standard CSLI M27-A2 method

[47] = test system: Staphylococcus epidermidis; experiment: microbe, parasite or virus in culture; type: functional; details: H 6966/08, 24 h
Description: Antibacterial activity against Staphylococcus epidermidis H 6966/08 after 24 hrs by microdilution broth method

Aspergillus fumigatus [48] = experiment: microbe, parasite or virus in culture; type: functional; details: Aspergillus fumigatus, 231, 48 h
Description: Antifungal activity against Aspergillus fumigatus 231 after 48 hrs by modified standard CSLI M27-A2 method

[49] = test system: Trichophyton mentagrophytes; experiment: microbe, parasite or virus in culture; type: functional; details: Trichophyton mentagrophytes, 445, 120 h
Description: Antifungal activity against Trichophyton mentagrophytes 445 after 120 hrs by modified standard CSLI M27-A2 method

Staphylococcus aureus [50] = experiment: Bactericidal activity against Staphylococcus aureus CCM 4516/08 after 48 hrs by microdilution broth method; type: functional; details: CCM 4516/08, 48 h, read-out: MBC>99.9
[51] = test system: Trichophyton mentagrophytes; experiment: Fungicidal activity against Trichophyton mentagrophytes 445 after 120 hrs by modified standard CSLI M27-A2 method; type: functional; details: Trichophyton mentagrophytes, 445, 120 h

CCCCCCCCCC[n+]1cccc2cc(O)ccc21.[Br-]
Retention_time [1]: 8.64 min
Retention_time [2]: 0.65 min

CCCCCCCCCCCC[n+]1cccc2cc(O)ccc21.[Br-]
MBC (Escherichia coli [3]): 1.95 µM
Retention_time [1]: 9.34 min
MIC95 [4]: 0.49 µM
MIC (Candida tropicalis [5]): 0.98 µM
MBC (Klebsiella pneumoniae [6]): 1.95 µM
IC50 [7]: 50 µM
MBC (Klebsiella pneumoniae [8]): 3.91 µM
MIC (Pichia kudriavzevii [9]): 0.98 µM
MFC (Lichtheimia corymbifera [10]): 15.6 µM
MIC95 (Enterococcus sp. [11]): 1.95 µM
MIC95 (Escherichia coli [12]): 1.95 µM
MIC (Lichtheimia corymbifera [13]): 15.6 µM
MIC (Pichia kudriavzevii [14]): 0.98 µM
MIC95 (Staphylococcus aureus [15]): 1.95 µM
MIC95 (Staphylococcus aureus [16]): 0.49 µM
MFC (Candida albicans [17]): 1.95 µM
MIC95 (Klebsiella pneumoniae [18]): 3.91 µM
MIC (Trichosporon asahii [19]): 1.95 µM
MIC (Candida albicans [20]): 0.98 µM
MFC (Candida tropicalis [21]): 1.95 µM
MBC [22]: 0.49 µM
MBC (Staphylococcus aureus [23]): 7.81 µM
MIC (Lichtheimia corymbifera [24]): 3.91 µM
MFC (Trichosporon asahii [25]): 1.95 µM
MIC95 (Klebsiella pneumoniae [26]): 3.91 µM
MIC95 (Escherichia coli [27]): 1.95 µM
MBC (Enterococcus sp. [28]): 1.95 µM
MFC (Aspergillus fumigatus [29]): 7.81 µM
MIC95 (Staphylococcus aureus [30]): 0.49 µM
MIC (Aspergillus fumigatus [31]): 1.95 µM
MIC95 (Klebsiella pneumoniae [32]): 1.95 µM
MIC95 (Enterococcus sp. [33]): 0.98 µM
MIC (Nakaseomyces glabratus [34]): 0.98 µM
MIC (Trichosporon asahii [35]): 0.98 µM
MIC95 (Klebsiella pneumoniae [36]): 1.95 µM
MIC95 (Staphylococcus aureus [37]): 1.95 µM
MIC95 (Pseudomonas aeruginosa [38]): 7.81 µM
MIC (Nakaseomyces glabratus [39]): 1.95 µM
MFC (Pichia kudriavzevii [40]): 1.95 µM
MIC (Candida albicans [41]): 1.95 µM
MFC (Nakaseomyces glabratus [42]): 1.95 µM
MIC95 (Pseudomonas aeruginosa [43]): 7.81 µM
MBC (Pseudomonas aeruginosa [44]): 7.81 µM
MIC (Candida tropicalis [45]): 0.98 µM
MIC [46]: 0.49 µM
MIC95 [47]: 0.49 µM
MIC (Aspergillus fumigatus [48]): 7.81 µM
MIC [49]: 0.98 µM
MBC (Staphylococcus aureus [50]): 7.81 µM
Retention_time [2]: 0.95 min
MFC [51]: 0.98 µM
